According to publication PMC9065575, “Synthesis, computational studies, antimycobacterial and antibacterial properties of pyrazinoic acid–isoniazid hybrid conjugates” (RSC Advances, 2019):
≈ marks a conversion by molar mass, not a printed value. Where “and” joins values, the source holds several entries; their conditions need not be identical. Equal entries are not always repeated. Where two headings read alike, the source gives them in different places.

How the values were obtained:
[1] = system: Mycobacterium fortuitum; experiment: microbe, parasite or virus in culture; type: cell-based; details: for MIC: Mycolicibacterium fortuitum
[2] = system: RPE1 (normal human immortalized retinal epithelial) cell line; experiment: Antiproliferative properties by MTT technique; type: cell-based; details: RPE1 cells, 100 μM
Description: Antiproliferative properties of the synthesized compounds were screened against RPE1 (normal human immortalized retinal epithelial) cell line to determine the toxicity/selectivity towards normal cell by the standard MTT technique.[23]
Antiproliferative properties of the synthesized compounds were tested against RPE1 (normal human immortalized retinal epithelial) cell line at 100 μM to determine the toxicity/selectivity towards normal cell by the standard MTT technique.[23]

[3] = system: Mycobacterium marinum; experiment: microbe, parasite or virus in culture; type: cell-based; details: clinical isolate, read-out: Minimum inhibitory concentration (MIC) M. marinum
[4] = system: Mycobacterium bovis; experiment: microbe, parasite or virus in culture; type: cell-based; details: for MIC: Mycobacterium tuberculosis variant bovis, read-out: Minimum inhibitory concentration (MIC) M. bovis; for potency relative to the standard references (M. bovis MIC): vs INH and PZA
[5] = system: M. tuberculosis Erdman strain expressing luciferase; experiment: microbe, parasite or virus in culture; type: cell-based, Mycobacterium tuberculosis; details: for inhibition at 30 µg/mL: Mycobacterium tuberculosis, ERDMAN, 168 h, 30 μg mL^−1, pH 7.0, 7 days, vs untreated controls, read-out: Observed % growth inhibition at 30 µg/mL
[6] = system: Enterococcus faecalis; experiment: Aerobic antibacterial MIC, standard dilution technique; type: cell-based; details: Enterococcus faecalis, clinical isolate; value in parentheses; read-out: Minimum inhibitory concentration (MIC) Enterococcus faecalis
Description: (§1) Antibacterial properties were investigated for the synthesized compounds against a variety of Gram-positive (Staphylococcus aureus, Enterococcus faecalis) and Gram-negative (Klebsiella pneumonia, Proteus vulgaris, Pseudomonas aeruginosa) clinical isolate bacteria utilizing the standard technique.[21]

[7] = system: Staphylococcus aureus; experiment: as above; type: cell-based; details: clinical isolate, value in parentheses, read-out: Minimum inhibitory concentration (MIC) Staphylococcus aureus
Description: as §1

[8] = system: Klebsiella pneumoniae; experiment: as above; type: cell-based; details: clinical isolate, value in parentheses, read-out: Minimum inhibitory concentration (MIC) Klebsiella pneumoniae
Description: as §1

[9] = system: Proteus vulgaris; experiment: as above; type: cell-based; details: clinical isolate, value in parentheses, read-out: Minimum inhibitory concentration (MIC) Proteus vulgaris
Description: as §1

[10] = clinical isolate, observed MIC, read-out: Minimum inhibitory concentration (MIC) M. fortuitum
[11] = clinical isolate, read-out: Minimum inhibitory concentration (MIC) M. fortuitum
[12] = M. fortuitum, observed values listed with the BMLR-QSAR model, read-out: Observed MIC (Table S6)

Row | Structure (SMILES) | MIC [1, 10] [µM] | MIC [1, 11] [µg/mL] | Percentage of cell proliferation ± SD [2] [%] | MIC ([3]; observed MIC) [µM] | MIC [3] [µg/mL] | MIC [4] | MIC [1, 12] [µM] | melting point [°C] | inhibition at 30 µg/mL [5] [%] | MIC [6] [µM] | potency relative to INH (M. fortuitum MIC) ([1]; vs INH MIC 145.8 μM) | potency relative to PZA (M. fortuitum MIC) ([1]; vs PZA MIC 81.2 μM) [folds] | growth inhibition at 3 μg mL^−1 ([5]; 3 μg mL^−1, pH 7.0, compared with INH (>70% at 30 μg mL^−1)) | MIC [7] [µM] | MIC [8] [µM] | MIC [9] [µM] | potency relative to the standard references (M. bovis MIC) [4]
1 | O=C(NC(Cc1ccccc1)C(=O)O)c1cnccn1 (racemic) [10f, (Pyrazine-2-carbonyl)-DL-phenylalanine] | > 73.7 | > 20 | 86.5 ± 4.2 | 73.7 | 20 | > 20 µg/mL and > 73.7 µM | – | – | – | – | – | – | – | – | – | – | –
2 | CC(C)C[C@H](NC(=O)c1cnccn1)C(=O)O [10a, (Pyrazine-2-carbonyl)-L-leucine] | 84.3 | 20 | 84.6 ± 0.7 | 84.3 | 20 | > 20 µg/mL and > 84.3 µM | 84300 | 155 to 156 | 88.8 | – | – | – | – | – | – | – | –
3 | CC(C)[C@H](NC(=O)c1cnccn1)C(=O)O [10b, (Pyrazine-2-carbonyl)-L-valine] | > 89.6 | > 20 | 82.1 ± 3.0 | > 89.6 | > 20 | > 20 µg/mL and > 89.6 µM | – | 160 to 162 | 91 | 0.13 (≈ 0.029 µg/mL) | – | – | – | – | – | – | –
4 | CC[C@@H](C)[C@H](NC(=O)c1cnccn1)C(=O)O [10c, (Pyrazine-2-carbonyl)-L-alloisoleucine] | > 84.3 | > 20 | 81.8 ± 5.5 | > 84.3 | > 20 | > 20 µg/mL and > 84.3 µM | – | 164 to 166 | 84.3 | – | – | – | – | – | – | – | –
5 | CSCC[C@H](NC(=O)c1cnccn1)C(=O)O [10d, (Pyrazine-2-carbonyl)-L-methionine] | > 78.3 | > 20 | 82.9 ± 8.5 | > 78.3 | > 20 | > 20 µg/mL and > 78.3 µM | – | 136 to 138 | 80.2 | – | – | – | – | – | – | – | –
6 | O=C(N[C@@H](Cc1ccccc1)C(=O)O)c1cnccn1 [10e, (Pyrazine-2-carbonyl)-L-phenylalanine] | > 73.7 | > 20 | 90.4 ± 3.3 | > 73.7 | > 20 | > 20 µg/mL and > 73.7 µM | – | – | 60.4 | – | – | – | – | – | – | – | –
7 | O=C(N[C@@H](Cc1c[nH]c2ccccc12)C(=O)O)c1cnccn1 [10g, (Pyrazine-2-carbonyl)-L-tryptophan] | > 64.5 | > 20 | 80.1 ± 7.4 | > 64.5 | > 20 | > 20 µg/mL and > 64.5 µM | – | 127 to 129 | 8.8 | – | – | – | – | – | – | – | –
8 | CC(C)C[C@H](NC(=O)c1cnccn1)C(=O)NNC(=O)c1ccncc1 [12a, (S)-N-(1-(2-Isonicotinoylhydrazineyl)-4-methyl-1-oxopentan-2-yl)pyrazine-2-carboxamide] | 56.1 | 20 | 80.1 ± 4.2 | 56.1 | 20 | > 20 µg/mL and > 56.1 µM | 56100 | 160 to 162 | 68.9 | – | – | – | – | – | – | – | –
9 | CC[C@H](C)[C@H](NC(=O)c1cnccn1)C(=O)NNC(=O)c1ccncc1 [12c, N-((2S,3S)-1-(2-Isonicotinoylhydrazineyl)-3-methyl-1-oxopentan-2-yl)pyrazine-2-carboxamide] | 56.1 | 20 | 84.6 ± 3.7 | 56.1 | 20 | > 20 µg/mL and > 56.1 µM | 56100 | 168 to 170 | 84.1 | – | – | – | – | – | – | – | –
10 | CSCC[C@H](NC(=O)c1cnccn1)C(=O)NNC(=O)c1ccncc1 [12d, (S)-N-(1-(2-Isonicotinoylhydrazineyl)-4-(methylthio)-1-oxobutan-2-yl)pyrazine-2-carboxamide] | 53.4 | 20 | – | 26.7 | 10 | > 20 µg/mL and > 53.4 µM | 53400 | 145 to 147 | – | – | – | – | – | – | – | – | –
11 | O=C(NNC(=O)[C@H](Cc1ccccc1)NC(=O)c1cnccn1)c1ccncc1 [12e, (S)-N-(1-(2-Isonicotinoylhydrazineyl)-1-oxo-3-phenylpropan-2-yl)pyrazine-2-carboxamide] | 51.2 | 20 | 83.2 ± 5.7 | 51.2 | 20 | > 20 µg/mL and > 51.2 µM | 51200 | 177 to 179 | 94.8 | – | – | – | – | – | – | – | –
12 | O=C(NNC(=O)C(Cc1ccccc1)NC(=O)c1cnccn1)c1ccncc1 (centres unmarked) [12f, N-(1-(2-Isonicotinoylhydrazineyl)-1-oxo-3-phenylpropan-2-yl)pyrazine-2-carboxamide] | 25.6 | 10 | 95.5 ± 8.6 | 25.6 | 10 | > 20 µg/mL and > 51.2 µM | – | 143 to 145 | – | – | about 5.6 folds | ~3.2 | – | – | – | – | –
13 | O=C(NNC(=O)[C@H](Cc1c[nH]c2ccccc12)NC(=O)c1cnccn1)c1ccncc1 [12g, (S)-N-(3-(1H-Indol-3-yl)-1-(2-isonicotinoylhydrazineyl)-1-oxopropan-2-yl)pyrazine-2-carboxamide] | 46.6 | 20 | 92.2 ± 1.2 | 46.6 | 20 | > 20 µg/mL and > 46.6 µM | 46600 | 243 to 245 | 96 | – | – | – | – | – | – | – | –
14 | O=C(NNC(=O)c1cnccn1)c1ccncc1 [compound 13, N′-Isonicotinoylpyrazine-2-carbohydrazide] | 41.1 | 10 | 88.2 ± 5.1 | 41.1 | 10 | 82.2 µM and 20 µg/mL | 41100 | – | 90.1 | 65.8 (≈ 16 µg/mL) | – | – | same growth inhibition | 32.9 (≈ 8 µg/mL) | 32.9 (≈ 8 µg/mL) | 263 (≈ 64 µg/mL) | 1.8–2.0 folds
15 | O=C(NNC(=O)c1ccncc1)c1ccncc1 [compound 16, N′-Isonicotinoylisonicotinohydrazide] | 82.6 | 20 | 83.5 ± 7.4 | 82.6 | 20 | 82.6 µM and 20 µg/mL | 82600 | – | 78.1 | 66 (≈ 16 µg/mL) | – | – | – | 16.5 (≈ 4 µg/mL) | 16.5 (≈ 4 µg/mL) | 0.12 (≈ 0.0291 µg/mL) | 1.8–2.0 folds
